From US20240402196A1 (Exact Sciences Corporation, priority 2018, published 2024)
Counter-ions that a name gives are not always drawn. Values belong to the molecule of their own block, whether it stands above or below them.

Tests used:
[1] = target: T1, hemoglobin in stool samples (Homo sapiens, UniProt P68871+P69905); assay: 3-Day shipping simulation, hemoglobin % recovery by ELISA; set-up: from tissue; host or cells: stool samples; conditions: for Notes (Hb stability vs Hb Collection Buffer): additive concentrations as in the 8th table;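 for all read-outs here: stool samples put through shipping stress in a thermal cycler, hemoglobin quantified by ELISA before and after, stability given as post-stress % of the pre-stress level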
T1 sequence (P69905 2-142 limits assumed): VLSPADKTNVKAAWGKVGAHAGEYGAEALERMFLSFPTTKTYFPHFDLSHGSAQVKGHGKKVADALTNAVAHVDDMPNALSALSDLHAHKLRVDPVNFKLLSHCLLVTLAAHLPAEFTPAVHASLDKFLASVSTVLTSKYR
T1 sequence (P68871 2-147 limits assumed): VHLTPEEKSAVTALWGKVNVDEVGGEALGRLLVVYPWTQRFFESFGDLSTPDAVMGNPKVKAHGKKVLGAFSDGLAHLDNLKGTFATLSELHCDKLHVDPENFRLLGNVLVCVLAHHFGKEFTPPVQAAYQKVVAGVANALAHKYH

[2] = target: T1, hemoglobin in stool samples; assay: Accelerated shipping simulation (35C 16 hour challenge), hemoglobin % recovery by ELISA; set-up: from tissue; host or cells: stool samples;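 note: stool hemoglobin measured by ELISA before and after thermal-cycler shipping stress, stability given as percent of pre-stress hemoglobin recovered afterwards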
hemoglobin (Hb) = target: T2, hemoglobin (Hb) (Homo sapiens, UniProt P68871+P69905); assay: Appendix B: additives in Hb Collection Buffer, % Hb Recovery
T2 construct: To assess the stability of hemoglobin in stool samples, samples were exposed to simulated shipping stress conditions; from tissue; host or cells: stool samples
T2 sequence (P69905 2-142 limits assumed): as the sequence (P69905 2-142 limits assumed) above
T2 sequence (P68871 2-147 limits assumed): as the sequence (P68871 2-147 limits assumed) above

Molecule: O=c1cc(-c2ccccc2)oc2c(O)c(O)ccc12 [7,8 dihydroxyflavone]
Results ([1]; additive concentration 0.5 mM): No improvement | Results ([1]; additive concentration 1 mM): No improvement

Results ([2]; additive concentration 0.2 uM): No Improvement | Results ([2]; additive concentration 5 uM): No Improvement | Results ([2]; additive concentration 10 uM): No Improvement | Results ([2]; additive concentration 100 uM): No Improvement | Results ([2]; additive concentration 10 mM): No Improvement | Results ([2]; additive concentration 25 mM): No Improvement | Results ([2]; additive concentration l uM): No Improvement | Results ([1]; additive concentration 0.5 mM): No improvement | Results ([1]; additive concentration 1 mM): No improvement | Results ([1]; additive concentration 5 mM): No improvement
Molecule: O=C1O[C@H]([C@@H](O)CO)C(O)=C1O [Ascorbic Acid]

Results ([1]; Additive Concentration 0.0002%): No improvement | Results ([1]; Additive Concentration 0.0010%): No improvement | Results ([1]; Additive Concentration 0.0020%): No improvement
Molecule: O=[N+]([O-])C1(Br)COCOC1 [Bronidox]

Molecule: [Ca+2].[Cl-].[Cl-] [Calcium Chloride, pH 6.5]
Results (hemoglobin (Hb); Additive Concentration 10 mM): No Improvement

Molecule: CCC(=O)[O-].CCC(=O)[O-].[Ca+2] [Calcium Propionate]
Results ([1]; additive concentration 5 mM): Calcium cation shows | Results ([1]; additive concentration 10 mM): Calcium cation shows | Results ([1]; additive concentration 20 mM): Calcium cation shows | Results ([1]; additive concentration 30 mM): Calcium cation shows | Results ([1]; additive concentration 40 mM): Calcium cation shows | Results ([1]; additive concentration 50 mM): Calcium cation shows

Molecule: [Cl][Co][Cl] [Cobalt Chloride]
Results ([1]; additive concentration 0.001M): No Improvement | Results ([1]; additive concentration 0.01M): No Improvement | Results ([1]; additive concentration 0.05M): No Improvement

Results ([1]; additive concentration 1 mM): No Improvement | Results ([1]; additive concentration 10 mM): No Improvement | Results ([1]; additive concentration 25 mM): No Improvement
Molecule: [Cl][Cu][Cl] [Copper Chloride]

Molecule: O=c1c(-c2ccc(O)cc2)coc2cc(O)ccc12 [Diadzein]
Results ([1]; Additive Concentration 60 mM): No improvement | Results ([1]; additive concentration 25 uM): No improvement | Results ([1]; additive concentration 50 uM): No improvement | Results ([1]; additive concentration 100 uM): No improvement | Results ([1]; additive concentration 40 mM): No improvement | Results ([1]; additive concentration 50 mM): No improvement

Results ([2]; additive concentration 10 uM): No Improvement | Results ([2]; additive concentration 100 uM): No Improvement | Results ([2]; additive concentration 1 mM): No Improvement | Results ([2]; additive concentration 10 mM): No Improvement | Results ([1]; additive concentration 10 mM): No Improvement | Results ([1]; additive concentration 25 mM): No Improvement | Results ([1]; additive concentration 50 mM): No Improvement | Results ([1]; additive concentration 75 mM): No Improvement | Results ([1]; additive concentration 100 mM): No Improvement
Molecule: O=C(NCO)N(CO)C1(CO)C(=O)NC(=O)N1CO (stereo not drawn) [Diazolidinyl Urea]

Molecule: C=O [Formaldehyde Solution]
Results ([1]; additive concentration 0.010%): No Improvement | Results ([1]; additive concentration 0.020%): No Improvement | Results ([1]; additive concentration 0.030%): No Improvement | Results ([1]; additive concentration 0.035%): No Improvement | Results ([1]; additive concentration 0.040%): No Improvement | Results ([1]; additive concentration 0.050%): No Improvement | Results ([1]; additive concentration 0.060%): No Improvement | Results ([1]; additive concentration 0.070%): No Improvement | Results ([1]; additive concentration 0.080%): No Improvement | Results ([1]; additive concentration 0.090%): No Improvement | Results ([1]; additive concentration 0.100%): No Improvement | Results ([1]; additive concentration […]): No Improvement

Results (hemoglobin (Hb); Additive Concentration 0.01%): No Improvement | Results (hemoglobin (Hb); Additive Concentration 0.01% + 10 mM): No improvement | Results (hemoglobin (Hb); Additive Concentration 0.10%): No Improvement | Results (hemoglobin (Hb); Additive Concentration 0.1% + 10 mM): No improvement | Results (hemoglobin (Hb); Additive Concentration 1%): No Improvement | Results (hemoglobin (Hb); Additive Concentration 1% + 10 mM): No improvement
Molecule: O=C(O)[C@H]1OC(O)[C@H](O)[C@@H](O)[C@H]1O (stereo partly drawn) [Galaturonic Acid]

Results ([1]; additive concentration 0.010%): No Improvement | Results ([1]; additive concentration 0.020%): No Improvement | Results ([1]; additive concentration 0.030%): No Improvement | Results ([1]; additive concentration 0.035%): No Improvement | Results ([1]; additive concentration 0.040%): No Improvement | Results ([1]; additive concentration 0.050%): No Improvement | Results ([1]; additive concentration 0.060%): Assay Interference | Results ([1]; additive concentration 0.070%): Assay Interference | Results ([1]; additive concentration 0.080%): No Improvement | Results ([1]; additive concentration 0.090%): No Improvement | Results ([1]; additive concentration 0.100%): No Improvement
Molecule: O=CCCCC=O [Glutaraldehyde Solution]

Results ([1]; additive concentration 1 mM): No Improvement | Results ([1]; additive concentration 5 mM): No Improvement | Results ([1]; additive concentration 10 mM): No Improvement
Molecule: [Cl][Fe]([Cl])[Cl] [Iron (3) Chloride]

Molecule: Cn1sccc1=O [Methylisothiazolone]
Results ([1]; Additive Concentration 0.0001%): No improvement | Results ([1]; Additive Concentration 0.0002%): No improvement | Results ([1]; Additive Concentration 0.0010%): No improvement | Results ([1]; Additive Concentration 0.0020%): No improvement | Results ([1]; additive concentration 0.00005%): No improvement

Molecule: [Cl][Ni][Cl] [Nickel Chloride]
Results ([1]; additive concentration 1 mM): No Improvement | Results ([1]; additive concentration 10 mM): No Improvement | Results ([1]; additive concentration 25 mM): No Improvement

Molecule: O=c1c(O)c(-c2ccc(O)c(O)c2)oc2cc(O)cc(O)c12 [Quercetin]
Results ([2]; additive concentration 0.6 uM): No Improvement | Results ([2]; additive concentration 6 uM): No Improvement | Results ([2]; additive concentration 60 uM): No Improvement | Results ([1]; Additive Concentration 150 uM): No improvement | Results ([1]; Additive Concentration 300 uM): No improvement | Results ([1]; Additive Concentration 600 uM): No improvement

Results ([1]; Additive Concentration 10 mM): No improvement | Results ([1]; additive concentration 5 mM): No improvement | Results ([1]; additive concentration 20 mM): No improvement
Molecule: Oc1ccc(C=Cc2cc(O)cc(O)c2)cc1 [Resveratrol]

Molecule: O=C([O-])CNCO.[Na+] [Soduim hyrdoxylmethyl glycinate]
Results ([1]; additive concentration 10 mM): No Improvement | Results ([1]; additive concentration 25 mM): No Improvement | Results ([1]; additive concentration 50 mM): No Improvement | Results ([1]; additive concentration 75 mM): No Improvement | Results ([1]; additive concentration 90 mM): No Improvement

Results ([2]; additive concentration […]): Improvement | Notes (Hb stability vs Hb Collection Buffer) [1]: Improved Hb
Molecule: OC[C@H]1O[C@@](CO)(O[C@H]2O[C@H](CO)[C@@H](O)[C@H](O)[C@H]2O)[C@@H](O)[C@@H]1O [Sucrose]

Results ([1]; Additive Concentration 0.10%): No improvement | Results ([1]; Additive Concentration 1%): No improvement | Results ([1]; Additive Concentration 10%): No improvement
Molecule: Cc1c(C)c2c(c(C)c1O)CCC(C)(CCCC(C)CCCC(C)CCCC(C)C)O2 (stereo not drawn) [Tocopherol]

Results ([2]; additive concentration 0.0174 mM): No Improvement | Results ([2]; additive concentration 0.174 mM): No Improvement | Results ([2]; additive concentration 1.74 mM): No Improvement | Results ([2]; additive concentration 10 mM): No Improvement | Results ([2]; additive concentration 16.76 mM): No Improvement | Results ([2]; additive concentration 0.3M): Improvement | Notes (Hb stability vs Hb Collection Buffer) [1]: Improved Hb
Molecule: OC[C@H]1O[C@H](O[C@H]2O[C@H](CO)[C@@H](O)[C@H](O)[C@H]2O)[C@H](O)[C@@H](O)[C@@H]1O [Trehalose]

Results ([2]; additive concentration 25 uM): No Improvement | Results ([2]; additive concentration 250 uM): No Improvement | Results ([2]; additive concentration 500 uM): No Improvement | Results ([2]; additive concentration 5 mM): No Improvement | Results ([2]; additive concentration 50 mM): No Improvement | Results ([2]; additive concentration 100 mM): No Improvement
Molecule: NC(N)=O [Urea]

Results ([2]; additive concentration 0.6 uM): No Improvement | Results ([2]; additive concentration 6 uM): No Improvement | Results ([2]; additive concentration 60 uM): No Improvement
Molecule: O=c1[nH]c(=O)c2[nH]c(=O)[nH]c2[nH]1 [Uric Acid]

Results ([1]; additive concentration 0.5 mM): No improvement | Results ([1]; additive concentration 1 mM): No improvement | Results ([1]; additive concentration 2 mM): No improvement
Molecule: Cc1ncc(CO)c(CO)c1O [Vitamine B6 in HCl]

Molecule: [Cl-].[Cl-].[Zn+2] [Zinc Chloride]
Results ([1]; additive concentration 1 mM): No Improvement | Results ([1]; additive concentration 10 mM): No Improvement | Results ([1]; additive concentration 25 mM): No Improvement

Results ([1]; Additive Concentration 5%): No improvement | Results ([1]; Additive Concentration 10%): No improvement | Results ([1]; Additive Concentration 25%): No improvement
Molecule: N.N.N.O=C(O)C1=CC(=C(c2ccc(O)c(C(=O)O)c2)c2ccc(O)c(C(=O)O)c2)C=CC1=O [aurintircarboxylic acid ammonium salt]

Results ([1]; Additive Concentration 1%): No Improvement
Molecule: BSA (10 mM MOPS)

Molecule: Deferoxamine Mesylate Salt
Results ([2]; additive concentration 10 uM): No Improvement | Results ([2]; additive concentration 100 uM): No Improvement | Results ([2]; additive concentration 1 mM): No Improvement | Results ([2]; additive concentration 5 mM): No Improvement

Results ([2]; Additive Concentration 1 uM): No Improvement | Results ([2]; additive concentration 0.2 uM): No Improvement | Results ([2]; additive concentration 2 uM): No Improvement | Results ([2]; additive concentration 0.5 mM): No Improvement
Molecule: Dextran Sulphate

Results ([2]; additive concentration 25 uM): No Improvement | Results ([2]; additive concentration 250 uM): No Improvement
Molecule: Heparin
